Data from patent US20260116874A1, “HETEROAROMATIC INDOLESULFONAMIDES” (SEED Therapeutics, Inc., priority 2023, published 2026).

What follows are compounds tested on HCT116 colorectal cells (assay: Cell viability assay (CellTiter-Glo) in HCT116 cells). Conditions: Homo sapiens, HCT-116, 72h, CellTiter-Glo, read-out: HCT116 Assay (IC50).
Format: cell-based
Method: HCT116 colorectal cells were used in these experiments. HCT116 cells were obtained from ATCC. The CellTiter-Glo® Luminescent Cell Viability Assay Reagent was obtained from Promega.
Into a 96-well plate, 3000 HCT116 cells were seeded with 100 μL of media (McCoy's 5A Medium supplemented with 10% FBS, 100 units penicillin, and 100 μg streptomycin per mL) 24h before the experiment. For compound treatment, the liquid handling system-Pico machine was used to prepare all the compounds. Each master plate contained serial dilution of 2 compounds, including the control compound E7820. 10 mM compound stock was added to each well of the assay plate to give final concentrations of […], 0.003, 0.002 and 0 μM. Each concentration was tested in triplicate. After 72h, cell viability was determined using CellTiter-Glo Luminescent Cell Viability Assay Reagent following the manufacturer's recommended protocol. Briefly, equilibrate the assay plate and its contents at room temperature for approximately 30 minutes. 100 μL of CellTiter-Glo reagent was added to each well of the assay plate and the contents were mixed for 2 minutes at 500 rpm on an orbital shaker to induce cell lysis (Fisherbrand). The plate was incubated at room temperature for 10 minutes to stabilize luminescent signal. Then the plate was immediately placed in a plate reader (PerkinElmer Multimode Plate Reader Envision2105) and the luminescence signal (0.5 second per well integration time) was determined. IC50 values were calculated using Graphpad Prism 9 software.
Cell viability assays were performed to compare the potency of Compound 1 to Compound 143.

Question: Which IC50 does the source give for `Cc1ccc(NS(=O)(=O)c2cnc(N(C)S(C)(=O)=O)s2)c2[nH]cc(C#N)c12` [Compound 91] here?
Answer: Its IC50 is under 500 nM.

Question: For `O=S(=O)(Nc1ccc(Cl)c2c(Cl)c[nH]c12)c1cnc(C2(N3CCOCC3)CCC2)s1` [Compound 75], which IC50 is on record?
Answer: The IC50 was 500 to 1000 nM.

Question: With `CC(=O)Nc1ncc(S(=O)(=O)Nc2ccc(C)c3c(C#N)c[nH]c23)s1` [Compound 34, N-(5-(N-(3-cyano-4-methyl-1H-indol-7-yl)sulfamoyl)thiazol-2-yl)acetamide] as the compound, how does the IC50 read?
Answer: The IC50 was 500 to 1000 nM.

Question: `Cc1ccc(NS(=O)(=O)c2cnc(C3(N4CCOCC4)CCC3)s2)c2[nH]cc(C#N)c12` [Compound 32, N-(3-cyano-4-methyl-1H-indol-7-yl)-2-(1-morpholinocyclobutyl)thiazole-5-sulfonamide] was tested. Which IC50 did it give?
Answer: Its IC50 is 500 to 1000 nM.

Question: With `Cc1ccc(NS(=O)(=O)c2cscn2)c2[nH]cc(C#N)c12` [Compound 85] as the compound, how does the IC50 read?
Answer: The IC50 was 500 to 1000 nM.

Question: How did the IC50 turn out when `Cc1ccc(NS(=O)(=O)c2ccc3nccn3c2)c2[nH]cc(C#N)c12` [Compound 41] was run?
Answer: Its IC50 is 500 to 1000 nM.

Question: Which IC50 does the source give for `C#Cc1c[nH]c2c(NS(=O)(=O)c3cnc(C)s3)ccc(C)c12` [Compound 104] here?
Answer: The IC50 was over 1000 nM.

Question: `Cc1ccc(NS(=O)(=O)c2cnc(C3CCNCC3)s2)c2[nH]cc(C#N)c12` [Compound 26, N-(3-cyano-4-methyl-1H-indol-7-yl)-2-(4-piperidyl)thiazole-5-sulfonamide] was tested. Which IC50 did it give?
Answer: Its IC50 is over 1000 nM.

Question: For `Cc1ccc(NS(=O)(=O)c2cnc(C(F)(F)F)s2)c2[nH]cc(C#N)c12` [Compound 10, N-(3-cyano-4-methyl-1H-indol-7-yl)-2-(trifluoromethyl)thiazole-5-sulfonamide], which IC50 is on record?
Answer: The IC50 was over 1000 nM.

Question: With `Cc1ccc(NS(=O)(=O)c2cnc(OCC(=O)N3CCCC3C#N)s2)c2[nH]cc(C#N)c12` (centres unmarked) [Compound 65] as the compound, how does the IC50 read?
Answer: Its IC50 is over 1000 nM.

Question: With `Cc1ccc(NS(=O)(=O)c2ccc3nc(C#N)cn3c2)c2[nH]cc(C#N)c12` [Compound 42] as the compound, how does the IC50 read?
Answer: Its IC50 is over 1000 nM.

Question: With `O=S(=O)(Nc1cccc2c(Cl)c[nH]c12)c1cnc(C(F)F)s1` [Compound 13, N-(3-chloro-1H-indol-7-yl)-2-(difluoromethyl)thiazole-5-sulfonamide] as the compound, how does the IC50 read?
Answer: The IC50 was 500 to 1000 nM.

Question: Which IC50 does the source give for `COc1ncc(S(=O)(=O)Nc2ccc(C)c3c(C#N)c[nH]c23)s1` [Compound 90] here?
Answer: Its IC50 is under 500 nM.

Question: With `Cc1ccc(NS(=O)(=O)c2cnc(C3CCCN(C)C3)s2)c2[nH]cc(C#N)c12` (centres unmarked) [Compound 28, N-(3-cyano-4-methyl-1H-indol-7-yl)-2-(1-methylpiperidin-3-yl)thiazole-5-sulfonamide] as the compound, how does the IC50 read?
Answer: Its IC50 is over 1000 nM.

Question: With `[2H]C([2H])([2H])c1ncc(S(=O)(=O)Nc2ccc(C)c3c(Cl)c[nH]c23)s1` [Compound 92] as the compound, how does the IC50 read?
Answer: The IC50 was 500 to 1000 nM.

Question: How did the IC50 turn out when `Cc1ncc(S(=O)(=O)Nc2ccc(Cl)c3c(Cl)c[nH]c23)s1` [Compound 4, N-(3,4-dichloro-1H-indol-7-yl)-2-methyl-thiazole-5-sulfonamide] was run?
Answer: The IC50 was 500 to 1000 nM.

Question: `Cc1ncc(CS(=O)(=O)Nc2ccc(C)c3c(C#N)c[nH]c23)s1` [Compound 8, N-(3-cyano-4-methyl-1H-indol-7-yl)-1-(2-methylthiazol-5-yl)methanesulfonamide] was tested. Which IC50 did it give?
Answer: The IC50 was over 1000 nM.

Question: `Cc1ccc(NS(=O)(=O)c2cnc(C3CCN(C(=O)OC(C)(C)C)CC3)s2)c2[nH]cc(C#N)c12` [Compound 25, tert-butyl 4-[5-[(3-cyano-4-methyl-1H-indol-7-yl)sulfamoyl]thiazol-2-yl]piperidine-1-carboxylate] was tested. Which IC50 did it give?
Answer: Its IC50 is over 1000 nM.

Question: Which IC50 does the source give for `Cc1ccc(NS(=O)(=O)c2cnc(NC(=O)OC(C)(C)C)s2)c2[nH]cc(C#N)c12` [Compound 18, tert-butyl (5-(N-(3-cyano-4-methyl-1H-indol-7-yl)sulfamoyl)thiazol-2-yl)carbamate] here?
Answer: The IC50 was 500 to 1000 nM.

Question: For `Cc1ccc(NS(=O)(=O)c2cc3n(n2)CCC3)c2[nH]cc(C#N)c12` [Compound 44], which IC50 is on record?
Answer: Its IC50 is 500 to 1000 nM.

Question: With `Cc1ccc(NS(=O)(=O)c2cnn3c2CCC3)c2[nH]cc(C#N)c12` [Compound 43] as the compound, how does the IC50 read?
Answer: Its IC50 is 500 to 1000 nM.

Question: How did the IC50 turn out when `Cc1ncc(S(=O)(=O)N(C)c2ccc(C)c3c(C#N)c[nH]c23)s1` [Compound 30, N-(3-cyano-4-methyl-1H-indol-7-yl)-N,2-dimethyl-thiazole-5-sulfonamide] was run?
Answer: The IC50 was over 1000 nM.

Question: With `Cc1ncc(S(=O)(=O)Nc2ccc(C)c3c(C(F)F)c[nH]c23)s1` [Compound 5, N-(3-(difluoromethyl)-4-methyl-1H-indol-7-yl)-2-methylthiazole-5-sulfonamide] as the compound, how does the IC50 read?
Answer: The IC50 was 500 to 1000 nM.

Question: For `Cc1ccc(NS(=O)(=O)c2cnc(N)s2)c2[nH]cc(C#N)c12` [Compound 19, 2-amino-N-(3-cyano-4-methyl-1H-indol-7-yl)thiazole-5-sulfonamide], which IC50 is on record?
Answer: The IC50 was 500 to 1000 nM.

Question: How did the IC50 turn out when `Cc1ccc(NS(=O)(=O)c2cnc(CN3CCC(C#N)C3)s2)c2[nH]cc(C#N)c12` (centres unmarked) [Compound 24, N-(3-cyano-4-methyl-1H-indol-7-yl)-2-((3-cyanopyrrolidin-1-yl)methyl)thiazole-5-sulfonamide] was run?
Answer: Its IC50 is 500 to 1000 nM.

Question: For `Cc1ccc(NS(=O)(=O)c2cnc(C(C)N(C)C)s2)c2[nH]cc(C#N)c12` (centres unmarked) [Compound 23, N-(3-cyano-4-methyl-1H-indol-7-yl)-2-(1-(dimethylamino)ethyl)thiazole-5-sulfonamide], which IC50 is on record?
Answer: Its IC50 is 500 to 1000 nM.

Question: For `Cc1ccc(NS(=O)(=O)c2cnc(N3CCOCC3)s2)c2[nH]cc(C#N)c12` [Compound 17, N-(3-cyano-4-methyl-1H-indol-7-yl)-2-morpholino-thiazole-5-sulfonamide], which IC50 is on record?
Answer: The IC50 was 500 to 1000 nM.

Question: `Cc1ncc(S(=N)(=O)Nc2ccc(C)c3c(C#N)c[nH]c23)s1` (centres unmarked) [Compound 33, 4-methyl-7-[[(2-methylthiazol-5-yl)sulfonimidoyl]amino]-1H-indole-3-carbonitrile] was tested. Which IC50 did it give?
Answer: Its IC50 is over 1000 nM.

Question: With `Cc1ccc(NS(=O)(=O)c2ccn3cc(C#N)nc3c2)c2[nH]cc(C#N)c12` [Compound 40] as the compound, how does the IC50 read?
Answer: Its IC50 is 500 to 1000 nM.

Question: With `COCCc1ncc(S(=O)(=O)Nc2ccc(C)c3c(C#N)c[nH]c23)s1` [Compound 7, N-(3-cyano-4-methyl-1H-indol-7-yl)-2-(2-methoxyethyl)thiazole-5-sulfonamide] as the compound, how does the IC50 read?
Answer: The IC50 was under 500 nM.

Question: `O=S(=O)(Nc1ccc(Cl)c2c(Cl)c[nH]c12)c1cnc(C(F)(F)F)s1` [Compound 11, N-(3,4-dichloro-1H-indol-7-yl)-2-(trifluoromethyl)thiazole-5-sulfonamide] was tested. Which IC50 did it give?
Answer: The IC50 was over 1000 nM.

Question: With `O=S(=O)(Nc1ccc(Cl)c2c(Cl)c[nH]c12)c1cscn1` [Compound 84] as the compound, how does the IC50 read?
Answer: The IC50 was 500 to 1000 nM.

Question: For `CN1CCCC(c2ncc(S(=O)(=O)Nc3ccc(Cl)c4cc[nH]c34)s2)C1` (centres unmarked) [Compound 16, N-(4-chloro-1H-indol-7-yl)-2-(1-methylpiperidin-3-yl)thiazole-5-sulfonamide], which IC50 is on record?
Answer: The IC50 was over 1000 nM.

Question: How did the IC50 turn out when `Cc1ccc(NS(=O)(=O)c2cnc(C3CCN(C)CC3)s2)c2[nH]cc(C#N)c12` [Compound 12, N-(3-cyano-4-methyl-1H-indol-7-yl)-2-(1-methyl-4-piperidyl)thiazole-5-sulfonamide] was run?
Answer: Its IC50 is over 1000 nM.

Question: With `CC(=O)N1CCC(c2ncc(S(=O)(=O)Nc3ccc(C)c4c(C#N)c[nH]c34)s2)CC1` [Compound 29, 2-(1-acetyl-4-piperidyl)-N-(3-cyano-4-methyl-1H-indol-7-yl)thiazole-5-sulfonamide] as the compound, how does the IC50 read?
Answer: The IC50 was over 1000 nM.

Question: How did the IC50 turn out when `Cc1ncc(S(=O)(=O)Nc2cccc3c(Cl)c[nH]c23)s1` [Compound 9, N-(3-chloro-1H-indol-7-yl)-2-methylthiazole-5-sulfonamide] was run?
Answer: The IC50 was 500 to 1000 nM.

Question: How did the IC50 turn out when `Cc1ccc(NS(=O)(=O)c2cnc(C(C)(C)O)s2)c2[nH]cc(C#N)c12` [Compound 35, N-(3-cyano-4-methyl-1H-indol-7-yl)-2-(1-hydroxy-1-methyl-ethyl)thiazole-5-sulfonamide] was run?
Answer: Its IC50 is 500 to 1000 nM.

Question: How did the IC50 turn out when `Cc1ncc(S(=O)(=O)Nc2ccc(Cl)c3c(C#N)c[nH]c23)s1` [Compound 6, N-(4-chloro-3-cyano-1H-indol-7-yl)-2-methyl-thiazole-5-sulfonamide] was run?
Answer: The IC50 was under 500 nM.

Question: `Cc1ccc(NS(=O)(=O)c2cnc(C3CCCNC3)s2)c2[nH]cc(C#N)c12` (centres unmarked) [Compound 27, N-(3-cyano-4-methyl-1H-indol-7-yl)-2-(piperidin-3-yl)thiazole-5-sulfonamide] was tested. Which IC50 did it give?
Answer: Its IC50 is over 1000 nM.

Question: For `Cc1nc(C)c(S(=O)(=O)Nc2ccc(C)c3c(C#N)c[nH]c23)s1` [Compound 21, N-(3-cyano-4-methyl-1H-indol-7-yl)-2,4-dimethylthiazole-5-sulfonamide], which IC50 is on record?
Answer: The IC50 was 500 to 1000 nM.

Question: With `O=S(=O)(Nc1ccc(Cl)c2cc[nH]c12)c1cnc(C2CCCNC2)s1` (centres unmarked) [Compound 15, N-(4-chloro-1H-indol-7-yl)-2-(piperidin-3-yl)thiazole-5-sulfonamide] as the compound, how does the IC50 read?
Answer: Its IC50 is 500 to 1000 nM.
